Measurements from patent publication US20140221390A1, “PROPHYLACTIC AND/OR THERAPEUTIC AGENT FOR NON-ALCOHOLIC STEATOHEPATITIS” (Kowa Company, Ltd., priority 2010, published 2014).
Where a name gives a salt, the structure may show the parent alone.

Columns and labels:
Type in all cases: in vivo
[1] = tested on: LDL receptor-knockout mice; assay: Effect in LDL receptor-knockout mouse NASH model (Western diet); settings: 12 weeks
Source text: An effect in LDL receptor-knockout mice fed with the Western diet which were known to develop fatty liver and hepatic inflammation, i.e., characteristic conditions of NASH (Yoshimatsu M. et al. Int J Exp Pathol., 85(6), 335-43 (2004)) was examined. In the present test, monohydrochloride of 2-[4-[2-(benzimidazol-2-ylthio)ethyl]piperazin-1-yl]-N-[2,4-bis(methylthio)-6-methyl-3-pyridyl]acetamide (hereinafter referred to as “compound A”) was used.
Male LDL receptor-knockout mice (B6.129S7-Ldlr<tm1Her>/J, Jackson Laboratories) were used for the experiment. The mice aged around 8 weeks were allowed to freely intake Teklad Custom Research Diet (TD.88137, manufactured by Harlan Teklad) as a Western diet for 12 weeks to cause them to develop NASH.
The mice were separated into a control group (hydrochloride added purified water) and a compound A (3 mg/kg, as free form) administered group so that there is no difference in the weights between the groups.
The dose was calculated by 10 mL/kg weight. Hydrochloride added purified water and each drug solution were orally administered to the control group and the compound A administered group, respectively, at an interval of at least 6 hours, once in the morning and once in the afternoon. The mice aged around 8 weeks were fed with the Western diet, and the drug solution was administered at the same time. The dosing period was 12 weeks.
After the end of administration, the mice were fasted overnight. The blood was collected from the abdominal portion of vena cava under anesthesia with pentobarbital sodium (50 mg/kg) and the plasma was fractionated. After collecting the blood, the liver was extracted and frozen for preservation. A part of the liver was frozen in ISOGEN (NIPPON GENE, CO., LTD.) and preserved to analyze the gene expression.
Total cholesterol (TC) and triglyceride (TG) in the plasma were measured using Cholesterol E Test Wako and Triglyceride E Test Wako (both manufactured by Wako Pure Chemical Industries, Ltd.), respectively. Measurement of liver lipid was performed in the following manner. Chloroform and methanol (at a ratio of 2:1) were added to the frozen and preserved liver, which was homogenized, and the resultant mixture was allowed to stand at 4° C. longer than overnight, followed by filtration. A part of the filtrate was fractionated, followed by evaporation and drying. The resultant product was dissolved in isopropanol. TC and TG concentrations were measured using Cholesterol E-Test Wako and Triglyceride E-Test Wako, respectively.
Liver gene expression analysis was performed by extracting RNA from the liver and measuring expression levels of TNF-α genes and CD11c genes in adhesion molecules belonging to an integrin family of macrophages by realtime RT-PCR. The liver was homogenized in ISOGEN to extract RNA according to the instruction manual. The concentration of RNA was measured using a spectrophotometer (ND-1000, NanoDrop Technologies, Inc.). Reverse transcription of mRNA from total RNA was performed using High Capacity cDNA Reverse Transcription Kit (Applied Biosystems) to synthesize cDNA. Gene expression analysis was performed by an intercalator method using SYBR green I or a method using Taqman Probe. Realtime RT-PCR was performed using 7900HT Fast Real-Time PCR System (Applied Biosystems). β-actin was used as an internal standard. After correction with β-actin, the expression levels of respective genes were compared with one another. The sequences of the used primers and probes are as follows: […]
The statistical work was performed using the Windows (registered trademark) version of the SAS Preclinical Package (SAS Institute Japan Inc.).

[2] = tested on: C57BL/6N-NASH mice; assay: Effect in murine NASH-hepatoma models (C57BL/6N-NASH mice); settings: 100 mg/kg mixed in feed, 5 weeks
Source text: Murine NASH-hepatoma models (brand name: C57BL/6 N-NASH mice) developed in Stelic Institute & Co. (See Japanese Patent Application Laid-Open (JP-A) No. 2009-178143) are provided by Charles River Laboratories Japan, Inc. The murine models develop NASH by initiation of insulin resistance and feeding with a high fat diet. The murine models show changes which histologically reflect the conditions of human NASH. The fatty liver (before 6 weeks old) progresses to NASH (7 weeks old), liver cirrhosis (after 10 weeks old), and liver cancer (after 16 weeks old). Accordingly, it is said that the models are useful in research and development of therapeutic drugs for NASH (See Data of SIAM Mice C57BL/6N-NASH Model Mice (http://www.crj.co.jp/topics/pdf/69/6375030/B6N_NASH_leaflet—091019.pdf)).
Then, the effect of the compound A was examined using murine NASH-hepatoma models with a more serious condition than the knockout mice used in Example 1.
Male C57BL/6N-NASH mice (Charles River Laboratories Japan, Inc.) were used for the experiment. Streptozotocin was administered to the mice aged 1 to 2 days and they were fed with a high fat diet (D12492, Research Diet) from 4 weeks old. The mice were purchased at 6 weeks old and continuously fed with the same high fat diet (hereinafter, the mice are referred to as “C57BL/6N-NASH mice”). As a normal control group, normal mice (C57BL/6N, 6 weeks old, Charles River Laboratories Japan, Inc.) were purchased at the same time and they were fed with an ordinary diet (CE-2, CLEA Japan, Inc.) (hereinafter referred to as “normal mice”).
C57BL/6N-NASH mice were used for a control group and a compound A (100 mg/kg) administered group. The number of mice in each group was six. As normal mice (control group), 6 normal mice (C57BL/6N mice) were used.
The compound A and feeds were mixed to feed the mice. C57BL/6N-NASH mice with NASH aged 7 weeks were fed with the feed mixture. The dosing period was 5 weeks.
After the end of administration, the mice were fasted for 4 hours. The blood was collected from the abdominal portion of vena cava under anesthesia, and the plasma was fractionated. After collecting the blood, the liver was extracted. A part of the liver was frozen for preservation, and the other part was embedded in paraffin in a usual manner. Plasma lipid and plasma ALT levels were measured using an autoanalyzer (Labospect003, Hitachi, Ltd.). Measurement of liver lipid was performed in the following manner. That is, chloroform and methanol (at a ratio of 2:1) were added to a part of the frozen and preserved liver, which was homogenized, and the resultant mixture was allowed to stand at 4° C. overnight, followed by filtration. A part of the filtrate was fractionated, followed by evaporation and drying. The resultant product was dissolved in isopropanol. The concentrations of total cholesterol (TC) and triglyceride (TG) were measured using Cholesterol E-Test Wako and Triglyceride E-Test Wako, respectively. Further, paraffin sections and HE-stained specimens were produced to observe liver tissues.

[3] = tested on: KK-A^y mice; assay: Effect in KK-Ay mice fed with MCD diet (NASH model); settings: 7 weeks
Source text: Rodent models fed with methionine-choline deficient diet (MCD diet) are widely used as NASH models (See Hebbard L, George J.: Animal models of nonalcoholic fatty liver disease Nat Rev Gastroenterol Hepatol. 2011 January; 8 (1):35-44. Epub 2010 Nov. 30.). Among them, models of KK-A^y mice are known to cause marked steatohepatitis and fibrosis (See Okumura K., Ikejima K., Kon K., Abe W., Yamashina S., Enomoto N., Takei Y. and Sato N. (2006) Exacerbation of dietary steatohepatitis and fibrosis in obese, diabetic KK-A^y mice Hepatology Research 2006 36:3 (217-228)). It is considered that the mice are excellent models to examine the drug effect on NASH.
Male KK-A^y mice (KK-A^y/TaJcl mice, 12 weeks old, were purchased from CLEA Japan, Inc.) were used for the experiment. The mice were fed with the MCD diet for 7 weeks to cause NASH.
The mice were separated into a control group, a compound A (30 mg/kg) administered group, and a compound A (200 mg/kg) administered group. The drug and feeds were mixed to feed the mice. The dosing period was 7 weeks.
The compound A and feeds were mixed to feed the mice. The mice was fed with the MCD diet, and fed with the feed mixture at the same time.
The methods were performed, in the same manner as in the case of the murine NASH-hepatoma models described in Example 2. In addition to the HE-stained specimens for observing liver tissues, Azan-stained specimens were also prepared.

CSc1cc(C)nc(SC)c1NC(=O)CN1CCN(CCSc2nc3ccccc3[nH]2)CC1 [compound A, monohydrochloride of 2-[4-[2-(benzimidazol-2-ylthio)ethyl]piperazin-1-yl]-N-[2,4-bis(methylthio)-6-methyl-3-pyridyl]acetamide]
total cholesterol (TC) in the plasma ([1]; 3 mg/kg as free form, oral, twice daily, Western diet, FIG. 1A): no significant effect
triglyceride (TG) in the plasma ([1]; 3 mg/kg as free form, oral, twice daily, Western diet, FIG. 1B): no significant effect
total cholesterol (TC) in the liver ([1]; 3 mg/kg as free form, oral, twice daily, Western diet, FIG. 2A): significant decrease
triglyceride (TG) in the liver ([1]; 3 mg/kg as free form, oral, twice daily, Western diet, FIG. 2B): significant decrease
macrophage CD11c gene expression in the liver ([1]; 3 mg/kg, realtime RT-PCR, corrected with β-actin, FIG. 3A): significant decreases
inflammatory cytokine TNF-α expression in the liver ([1]; 3 mg/kg, realtime RT-PCR, corrected with β-actin, FIG. 3B): significant decreases
plasma lipid ([2]; from 7 weeks old): no effect
plasma ALT level ([2]; vs NASH control group, FIG. 4): reduced
hepatic TC level ([2]; vs NASH control group, FIG. 5): reduced
hepatic TG level ([2]; vs NASH control group, FIG. 6): reduced
development of lipid-droplet deposition in liver (HE-stained) ([2]; FIG. 7): inhibited
plasma ALT level ([3]; 200 mg/kg mixed in feed, FIG. 8): significantly reduced
plasma lipid ([3]; 30 or 200 mg/kg mixed in feed): no effect
hepatic TC level ([3]; mixed in feed, FIG. 9): significantly reduced
hepatic TG level ([3]; mixed in feed, FIG. 10): significantly reduced
development of lipid-droplet deposition in the liver (HE-stained) ([3]; mixed in feed, FIG. 11): inhibited
development of fibrosis in the liver (Azan-stained) ([3]; mixed in feed, FIG. 12): inhibited
